# Data as given in patent US20250145601A1, “NOVEL BICYCLIC COMPOUNDS AS RAD51 INHIBITORS” (SATYA THERAPEUTICS, INC., priority 2022, published 2025).
# Test system: MDA MB 231 cells
# Test: Antiproliferation assay in MDA MB 231 cells (Cell Titer Glo)
# Assay type: cell-based
# Settings: Homo sapiens, MDA-MB-231, 216 h, MDAMB231 cell line, 9 day treatment, racemic compounds (Table 2)
# Procedure: Antiproliferation Assay in MDA MB 231 Cells MDA MB 231 cells were seeded in 96 well plate at a seeding density of 250 cells/well. The cells were allowed to settle overnight under standard incubator conditions (37° C., 5% CO2). Next day treatment with increasing dose of test compounds and reference compounds were done to the respective wells and the cells were further incubated under standard cell culture conditions for another 4 days. On the 5th day, media was replenished with fresh treatment and cells were incubated for a total of 9 day treatment period. On the day of termination, appropriate volume of Cell Titer Glo reagent was added to the treatment (and control) wells and the plates were kept on a plate shaker @300 RPM for 15 min. Luminiscence reading (RLU) was […] RLU is directly proportional to ATP content and is directly related to number of metabolically active cells in the respective well. Calculation: a. Blank Correction: RLU of the Wells Containing No Cells is Considered as Blank and Subtracted from all RLU of the Treated and Control Wells [formula]
row,Compound,inhibition at 10 µM
1,"CCC(=O)N1N=C(c2c(C)c3ccsc3[nH]c2=O)CC1c1ccc(OC)cc1 (racemic) [Example 20, 5-(5-(4-Methoxyphenyl)-1-propionyl-4,5-dihydro-1H-pyrazol-3-yl)-4-methylthieno-[2,3-b]pyridin-6(7H)-one]",≥ 50%
2,"CCC(=O)N1N=C(c2c(C)c3ccsc3[nH]c2=O)CC1c1ccc(Cl)cc1 (racemic) [Example 28, 5-(5-(4-chlorophenyl)-1-propionyl-4,5-dihydro-1H-pyrazol-3-yl)-4-methylthieno[2,3-b]pyridin-6(7H)-one]",≥ 50%
3,"CCC(=O)N1N=C(c2c(C)c3ccsc3[nH]c2=O)CC1c1ccsc1 (racemic) [Example 33, 4-methyl-5-(1-propionyl-5-(thiophen-3-yl)-4,5-dihydro-1H-pyrazol-3-yl)thieno[2,3-b]pyridin-6(7H)-one]",< 50%
4,"CCC(=O)N1N=C(c2c(C)c3ccsc3[nH]c2=O)CC1c1ccc(C)cc1 (racemic) [Example 37, 4-methyl-5-(1-propionyl-5-(p-tolyl)-4,5-dihydro-1H-pyrazol-3-yl)thieno[2,3-b]pyridin-6(7H)-one]",≥ 50%
5,"CCC(=O)N1N=C(c2c(C)c3ccsc3[nH]c2=O)CC1c1ccc(C)nc1 (racemic) [Example 45, 4-methyl-5-(5-(6-methylpyridin-3-yl)-1-propionyl-4,5-dihydro-1H-pyrazol-3-yl)thieno[2,3-b]pyridin-6(7H)-one]",≥ 50%
6,"CCC(=O)N1N=C(c2c(C)c3ccccc3[nH]c2=O)CC1c1ccc(C)cc1 (racemic) [Example 60, 4-methyl-3-(1-propionyl-5-(p-tolyl)-4,5-dihydro-1H-pyrazol-3-yl)quinolin-2(1H)-one]",≥ 50%
7,"CCC(=O)N1N=C(c2c(C)c3ccsc3[nH]c2=O)CC1c1ccc(C)cc1F (racemic) [Example 66, 5-(5-(2-fluoro-4-methylphenyl)-1-propionyl-4,5-dihydro-1H-pyrazol-3-yl)-4-methylthieno[2,3-b]pyridin-6(7H)-one]",≥ 50%
8,"CCC(=O)N1N=C(c2c(C)c3ccncc3[nH]c2=O)CC1c1ccc(C)cc1 (racemic) [Example 74, 4-methyl-3-(1-propionyl-5-(p-tolyl)-4,5-dihydro-1H-pyrazol-3-yl)-1,7-naphthyridin-2(1H)-one]",≥ 50%
9,"CCC(=O)N1N=C(c2c(C)c3ccnc(C)c3[nH]c2=O)CC1c1ccc(C)cc1 (racemic) [Example 78, 4,8-dimethyl-3-(1-propionyl-5-(p-tolyl)-4,5-dihydro-1H-pyrazol-3-yl)-1,7-naphthyridin-2(1H)-one]",≥ 50%
10,"CCC(=O)N1N=C(c2c(C)c3ccc(Cl)cc3[nH]c2=O)CC1c1ccc(C)cc1 (racemic) [Example 80, 7-chloro-4-methyl-3-(1-propionyl-5-(p-tolyl)-4,5-dihydro-1H-pyrazol-3-yl)quinolin-2(1H)-one]",≥ 50%
11,"CCC(=O)N1N=C(c2c(C)c3ccc(N4CCN(C)CC4)cc3[nH]c2=O)CC1c1ccc(C)cc1 (racemic) [Example 82, 4-methyl-7-(4-methylpiperazin-1-yl)-3-(1-propionyl-5-(p-tolyl)-4,5-dihydro-1H-pyrazol-3-yl)quinolin-2(1H)-one]",≥ 50%
12,"CCC(=O)N1N=C(c2c(C)c3cc(Cl)ccc3[nH]c2=O)CC1c1ccc(OC)cc1 (stereo not shown) [Example 1, 6-Chloro-3-(5-(4-methoxyphenyl)-1-propionyl-4,5-dihydro-1H-pyrazol-3-yl)-4-methylquinolin-2(1H)-one]",≥ 50%
13,"COc1ccc(C2CC(c3c(C)c4cc(Cl)ccc4[nH]c3=O)=NN2C(=O)C2CC2)cc1 (stereo not shown) [Example 2, 6-Chloro-3-(1-(cyclopropanecarbonyl)-5-(4-methoxyphenyl)-4,5-dihydro-1H-pyrazol-3-yl)-4-methylquinolin-2(1H)-one]",≥ 50%
14,"COc1ccc(C2CC(c3c(C)c4cc(Cl)ccc4[nH]c3=O)=NN2C(=O)C2CCOCC2)cc1 (stereo not shown) [Example 3, 6-chloro-3-(5-(4-methoxyphenyl)-1-(tetrahydro-2H-pyran-4-carbonyl)-4,5-dihydro-1H-pyrazol-3-yl)-4-methylquinolin-2(1H)-one]",≥ 50%
15,"COc1ccc(C2CC(c3c(C)c4cc(Cl)ccc4[nH]c3=O)=NN2C(=O)C2CCOC2)cc1 (stereo not shown) [Example 4, 6-chloro-3-(5-(4-methoxyphenyl)-1-(tetrahydrofuran-3-carbonyl)-4,5-dihydro-1H-pyrazol-3-yl)-4-methylquinolin-2(1H)-one]",≥ 50%
16,"COc1ccc(C2CC(c3c(C)c4cc(Cl)ccc4[nH]c3=O)=NN2C)cc1 (stereo not shown) [Example 5, 6-Chloro-3-(5-(4-methoxyphenyl)-1-methyl-4,5-dihydro-1H-pyrazol-3-yl)-4-methylquinolin-2(1H)-one]",< 50%
17,"CCC(=O)N1N=C(c2c(C)c3cc(Cl)ccc3[nH]c2=O)CC1c1ccc2ccn(C)c2c1 (stereo not shown) [Example 6, 6-Chloro-4-methyl-3-(5-(1-methyl-1H-indol-6-yl)-1-propionyl-4,5-dihydro-1H-pyrazol-3-yl)quinolin-2(1H)-one]",≥ 50%
18,"CCC(=O)N1N=C(c2c(C)c3cc(Cl)ccc3[nH]c2=O)CC1c1ccc(OC)nc1 (stereo not shown) [Example 7, 6-chloro-3-(5-(6-methoxypyridin-3-yl)-1-propionyl-4,5-dihydro-1H-pyrazol-3-yl)-4-methylquinolin-2(1H)-one]",≥ 50%
19,"CCC(=O)Nc1ccc(C2CC(c3c(C)c4cc(Cl)ccc4[nH]c3=O)=NN2C(=O)CC)cc1 (stereo not shown) [Example 8, N-(4-(3-(6-chloro-4-methyl-2-oxo-1,2-dihydroquinolin-3-yl)-1-propionyl-4,5-dihydro-1H-pyrazol-5-yl)phenyl)propionamide]",≥ 50%
20,"CCC(=O)N1N=C(c2c(C)c3ncccc3[nH]c2=O)CC1c1ccc(OC)cc1 (stereo not shown) [Example 9, 3-(5-(4-Methoxyphenyl)-1-propionyl-4,5-dihydro-1H-pyrazol-3-yl)-4-methyl-1,5-naphthyridin-2(1H)-one]",< 50%
21,"CCC(=O)N1N=C(c2c(C)c3ccccc3[nH]c2=O)CC1c1ccc(OC)cc1 (stereo not shown) [Example 11, 3-(5-(4-Methoxyphenyl)-1-propionyl-4,5-dihydro-1H-pyrazol-3-yl)-4-methylquinolin-2(1H)-one]",≥ 50%
22,"CCC(=O)N1N=C(c2c(C)c3ccccc3[nH]c2=O)CC1c1cn(C)c2ccccc12 (stereo not shown) [Example 12, 4-Methyl-3-(5-(1-methyl-1H-indol-3-yl)-1-propionyl-4,5-dihydro-1H-pyrazol-3-yl)quinolin-2(1H)-one]",≥ 50%

# Same assay, conditions: Homo sapiens, MDA-MB-231, 216 h, MDAMB231 cell line, 9 day treatment, separated enantiomers A/B (Table 3)
row,Compound,inhibition at 10 µM
1,"CCC(=O)N1N=C(c2c(C)c3ccsc3[nH]c2=O)CC1c1ccc(OC)cc1 (single isomer, unassigned) [Example 20A]",≥ 50%
2,"CCC(=O)N1N=C(c2c(C)c3ccsc3[nH]c2=O)CC1c1ccc(Cl)cc1 (single isomer, unassigned) [Example 28B]",≥ 50%
3,"CCC(=O)N1N=C(c2c(C)c3ccsc3[nH]c2=O)CC1c1ccsc1 (single isomer, unassigned) [Example 33B]",< 50%
4,"CCC(=O)N1N=C(c2c(C)c3ccsc3[nH]c2=O)CC1c1ccc(C)cc1 (single isomer, unassigned) [Example 37B]",≥ 50%
5,"CCC(=O)N1N=C(c2c(C)c3ccsc3[nH]c2=O)CC1c1ccc(C)nc1 (single isomer, unassigned) [Example 45B]",≥ 50%
6,"CCC(=O)N1N=C(c2c(C)c3ccccc3[nH]c2=O)CC1c1ccc(C)cc1 (single isomer, unassigned) [Example 60B]",≥ 50%
7,"CCC(=O)N1N=C(c2c(C)c3ccsc3[nH]c2=O)CC1c1ccc(C)cc1F (single isomer, unassigned) [Example 66A]",≥ 50%
8,"CCC(=O)N1N=C(c2c(C)c3ccncc3[nH]c2=O)CC1c1ccc(C)cc1 (single isomer, unassigned) [Example 74A]",≥ 50%
9,"CCC(=O)N1N=C(c2c(C)c3ccnc(C)c3[nH]c2=O)CC1c1ccc(C)cc1 (single isomer, unassigned) [Example 78A]",< 50%
10,"CCC(=O)N1N=C(c2c(C)c3ccc(Cl)cc3[nH]c2=O)CC1c1ccc(C)cc1 (single isomer, unassigned) [Example 80A]",< 50%
11,"CCC(=O)N1N=C(c2c(C)c3ccc(N4CCN(C)CC4)cc3[nH]c2=O)CC1c1ccc(C)cc1 (single isomer, unassigned) [Example 82A]",≥ 50%
12,"CCC(=O)N1N=C(c2c(C)c3ccccc3[nH]c2=O)C[C@@H]1c1ccc(C)cc1 (stereo in doubt) [Example 60A, rel-(R)-4-methyl-3-(1-propionyl-5-(p-tolyl)-4,5-dihydro-1H-pyrazol-3-yl)quinolin-2-(1H)-one]",≥ 50%

# Same assay, conditions: MDAMB231 cell line, 9 day treatment, separated enantiomers A/B (Table 3), 10 µM
row,Compound,% inhibition @ 10 μM
1,"CCC(=O)N1N=C(c2c(C)c3ccsc3[nH]c2=O)CC1c1ccc(C)nc1 (single isomer, unassigned) [Example 45A]",++ (<50% ++)
2,"CCC(=O)N1N=C(c2c(C)c3ccnc(C)c3[nH]c2=O)CC1c1ccc(C)cc1 (single isomer, unassigned) [Example 78B]",+ (≥50% +)
3,"CCC(=O)N1N=C(c2c(C)c3ccc(Cl)cc3[nH]c2=O)CC1c1ccc(C)cc1 (single isomer, unassigned) [Example 80B]",+ (≥50% +)
